# In patent US20230257700A1, “FUNCTIONAL HUMAN CORNEAL ENDOTHELIAL CELLS AND APPLICATION THEREOF” (KYOTO PREFECTURAL PUBLIC UNIVERSITY CORPORATION, priority 2020, published 2023):
# Legend:
# PDGF-bb = assay: ELISA PDGF-bb in culture supernatant; format: cell-based, human; conditions: for PDGF-bb in culture supernatant (weekly): #190719 P1 and P2, #190318
# Excerpt: (§1) Lot CT09 P5 was used to assay the effects of additives to evaluate the product in a SB2-new culture method. First, using CT09 P4 (remaining cells for FBS lot assay), the culture supernatant was collected the day before the passage (Day 42), and then the CT09 P5 was passaged with ECD400 (181219), followed by culturing in Nancy medium (FBS #1652794, containing ascorbic acid) under conditions 1 to 5 shown in FIG. 23 (2 wells for each 6-well plate). From the 1st week to the 5th week, the culture supernatant was collected, one well was subjected to FACS measurement on Day 34 (190122), and the culture supernatant was measured for IL-8 and PDGF-bb by ELISA.
# (§2) As to culture conditions, the Y addition timing is examined at P1 and P2 in #190719, and the Y addition timing is examined at P1 in #190802.
# (§3) Using P4 of #190719, the culture supernatant was collected at 1 to 5 w to examine the difference in accordance with the presence or absence of the ROCK inhibitor. Donor information was as follows: #190719S/D, AEB-301, OSCN/ODCN, ECD=3448/3289, COD: Bleomycin Lung Toxicity 2/2 ChemoTreatments, D-P=11:28, D-C=8D.
# miR184 = assay: intracellular miR184 expression by qRT-PCR; format: cell-based, human; conditions: with/without EGF, with/without Y27632
# Excerpt: (§4) Y27632 was used as a ROCK inhibitor.
# (§5) Culture conditions conform to Examples 1 and 2.
# (§6) The results of miR184, miR34, miR378, and miR146 gene expression variations in the presence or absence of EGF and in the presence or absence of Y by qRT-PCR are shown in FIGS. 17 and 18.
# [1] = tested on: human corneal endothelial cells (donor AEM-510); assay: adhesion enhancement at P0 with or without Y addition; format: cell-based
# Method: Next, ROCK inhibitors were tested for adhesion enhancement. In order to investigate whether the enhancement of adhesion by the ROCK inhibitor is related to standard cell manufacture, cells cultured under the following conditions were compared and verified at P0 with or without Y addition.
# AEM-510 (person), ECD ODCN: 3058, and OSCN: 3058 were used, which were stored at 4° C. on January 30th, corneal treatment was performed on January 31st at 10:00, OD collagenase treatment was started at 10:45, and OS collagenase treatment was started at 11:05. Thereafter, seeding was started at 14:45 and cultured with Y−, A (ascorbic acid)+for OD and Y+, A+ for OS. At 10:00 on February 4, the medium was replaced, and both eyes: Y+, A+ were photographed (phase contrast ×4, ×10).
# miR34a-5p = assay: intracellular miR34a-5p expression by qRT-PCR; format: cell-based, human; conditions: with/without EGF, with/without Y27632
# Excerpt: as §4, §5, §6
# [2] = tested on: cultured human corneal endothelial cells; assay: FACS cell surface CD antigens and phase-contrast morphology of cultured HCEC (standard cell ratio); format: cell-based
# Method: Culture with 0+Y, SB2, EGF, Asc (ascorbic acid) ↓ P1 Culture with +Y, SB2, EGF, Asc ↓ P2 Culture in 4 ways with EGF(−), 0.5 ng/mL, 1 ng/mL, 5 ng/mL (+Y, SB2, Asc) ↓ Passage from each condition in P2 P3 Culture in 4 ways with EGF(−), 0.5 ng/mL, 1 ng/mL, 5 ng/mL (+Y, SB2, Asc) ↓ Passage from each condition in P3 P4 Culture in 4 ways with EGF(−), 0.5 ng/mL, 1 ng/mL, 5 ng/mL (+Y, SB2, Asc) *Trypsin (TrypLE, ThermoFisher) concentration ×10 at the time of detachment, seeding cell number ECD800 (In the above, P indicates the number of passages.)
# P0 Culture two eyes collectively in 2 ways with EGF(−), 0.5 ng/mL (+Y, SB2, Asc) ↓ Passage from each condition in P0 P1 Culture in two ways with EGF(−), 0.5 ng/mL (+Y, SB2, Asc) ↓ Passage from each condition in P1 P2 Culture in two ways with EGF(−), 0.5 ng/mL (+Y, SB2, Asc) TrypLE concentration ×10 at the time of detachment, at seeding ECD800
# as §2, §3
# For FACS analysis, 16×10^4 cells (one type of antibody+negative control) were dispensed into Proteosave tubes and the rest were passaged. FACS required 8×10^4 cells per antibody type. Passages were seeded at an Endothelial Cell Density (ECD: cells/mm^2) of 400 (191001 time point) (24-well: 7.6×10^4 cells, 12-well: 15.2×10^4 cells, 6-well: 38×10^4 cells, T-25: 100×10^4 cells).
# The FACS was started up, and an antibody solution (hereinafter light-shielded, on ice) was prepared as follows. antigen fluorescent dye Volume (μL)×sample type plus something extra (μL)
# The cell suspension was centrifuged at 250×g (1,800 rpm) for 2 minutes at 4° C., the supernatant was removed using P-200, the concentration was adjusted to 4×10^6 cells/mL and suspended in FACS Buffer (+NaN3). When the suspension was less than 30 μL, it was suspended in 30 μL and 20 μL was used for the reaction and 10 μL for NC.
# Twenty μL of the antibody solution and 20 μL of the suspension were mixed well by pipetting, and the tube was wrapped in aluminum to shield from light and rotated at 4° C. for 2 hours (up to 4 hours maximum) on a rotator. Centrifugation was performed at 250×g (1,800 rpm) for 2 minutes at 4° C., the supernatant was discarded, followed by washing with 100 μL of FACS Buffer (+NaN3). Centrifugation was performed at 250×g (1,800 rpm) for 2 minutes at 4° C., the supernatant was discarded, followed by suspending in 350 μL of FACS buffer (−NaN3), and transferring through a cell strainer to a 5-mL tube. NCs were suspended in FACS Buffer (−NaN3) to a total of 350 μL of the rest of the initial suspension, and transferred to a 5-mL tube through a cell strainer. During the FACS measurement, the sample was kept light-shielded and on ice, the FACS laser value and target cell range were determined, and a file was created (to follow: Open Book→Open Syringe→Green→Cytometer tab: Laser→Area scaling for HCEC label: FSC 0.5/Blue 0.75/Red 0.80). The NC was set to SIT and allowed to run briefly (Flow rate: set to medium, Acquire data 5 seconds→Remove sample from SIT and put on ice) to check the fluorescence parameter graph and target cell range. […]
# IL-8 = assay: ELISA IL-8 in culture supernatant; format: cell-based, human
# Excerpt: as §1, §2, §3
# [3] = tested on: cultured human corneal endothelial cells CT09; assay: effects of additives, lot CT09 P5 (photographs, FACS, ELISA); format: cell-based; conditions: CT09 P5, conditions 1 to 5, Day 34 FACS, PDGF-bb and IL-8 1st to 5th week
# Excerpt: as §1
# IL-6, IL-8 and MIP-1b = assay: cytokine measurement (BioPlex) in culture supernatant; format: cell-based, human; conditions: #190318
# [4] = tested on: mitochondrial respiration (OXPHOS) of HCEC; assay: mitochondrial respiratory capacity of cHCEC; format: cell-based, human; conditions: HCEC passages 2-5
# Excerpt: As used herein, “mitochondria dependent oxidative phosphorylation” is also called “mitochondria OXPHOS” and refers to a reaction of oxidative phosphorylation that depends on respiratory activity. As to the reaction associated with “mitochondria OXPHOS”, a extracellular flux analyzer, which analyzes the state of intracellular metabolism, can measure the oxygen consumption rate (OCR), which is an index of OXPHOS activity, the extracellular acidification rate (ECAR), which is an index of glycolytic activity.
# Corneal endothelial cells (HCEC) were obtained from donor corneas provided by SightLife (Seattle, Wash., USA), and the HCEC were cultured according to a published protocol (Toda M, Ueno M, et al. Invest Ophthalmol Vis Sci. 2017; 58:2011) with some modifications. HCEC of passages 2-5 were used for all experiments. SPs containing CST were passaged at low cell density. The SPs of cHCEC were identified by cell surface markers (CD24, 44, 105, 166) using phase-contrast microscopy images and flow cytometry.
# [5] = tested on: cultured endothelial cells; assay: measurement of metabolites in culture supernatant (CE-TOFMS, CE-MS/MS); format: cell-based, human
# Method: In this Example, differences between the metabolite properties of functional human corneal endothelial cells and the metabolite properties of non-intended cells were confirmed.
# For measurement of metabolites in culture supernatant (CS), an 80 μL Milli-Q (Merck1 KGaA, Darmstadt, Germany) containing 20 μL of CS and internal standard solution 1 (H3304-1002; Human Metabolome Technologies, Inc., Yamagata, Japan), was thoroughly mixed. Cationic compounds were measured by CE time-of-flight mass spectrometry (CE-TOFMS) in positive mode, and anionic compounds were measured by CE tandem MS (CE-MS/MS) in positive and negative modes. Hierarchical cluster analysis (HCA) was performed using the proprietary software “PeakStat”. Differences in values were analyzed statistically using Student's t-test or one-way analysis of variance (ANOVA) with Bonferroni's post hoc test (GraphPadPrism 6.0, GraphPad software). A p-value of <0.05 was considered statistically significant.
# The effect of adding a ROCK inhibitor was determined according to Example 3.
# [6] = #190719 P1 and P2, ROCK inhibitor added 10 days after the start of culture
# [7] = #190719 P4, ROCK inhibitor added at the start of the culture for 3 days
molecule,measurement,setting,value
"C[C@@H](N)[C@H]1CC[C@H](C(=O)Nc2ccncc2)CC1.Cl.Cl.O (relative stereo) [Y27632, (R)-(+)-trans-(4-pyridyl)-4-(1-aminoethyl)-cyclohexanecarboxamide dehydrochloride monohydrate]",PDGF-bb in culture supernatant (weekly),PDGF-bb,high PDGF levels and slightly low levels in the P1 growth phase
same,PDGF-bb in culture supernatant (for each item),PDGF-bb; [6],increased from differentiation to maturation
same,PDGF-bb in culture supernatant,PDGF-bb; [7],at a low level and does not satisfy the standard values
same,PDGF-bb in culture supernatant,PDGF-bb; #190802,increased dependently on differentiation and induction by a ROCK inhibitor
same,miR184 expression level,miR184,increases with the addition of the ROCK inhibitor
same,adhesion to the incubator after seeding,"[1]; P0, Y+ vs Y−",promoted the adhesion to the incubator after seeding the cells
same,difference between cultures on the 14th day,[1]; Y27632 added for the first time after the 4th day vs from seeding,no difference was observed on the 14th day of culture
same,miR34a-5p expression level,miR34a-5p,increases with the addition of the ROCK inhibitor
same,mature standard cells by FACS,[2]; [7],no mature standard cells were detected by FACS
same,ratio of standard cells (FACS),"[2]; ROCK inhibitor added on the 10th day after the start of culture, #190719, #190802, #190318",higher ratio of standard cells in all of the three experiments
same,IL-8 in culture supernatant,IL-8; [6],lowest from differentiation to the maturation stage
same,IL-8 in culture supernatant,IL-8; [7],higher than the standard
same,desirable additive condition (overall effects of the additives),[3],addition of Y from Day 10
NC(=O)c1ccc(-c2nc(-c3ccc4c(c3)OCO4)c(-c3ccccn3)[nH]2)cc1 [SB4],desirable additive condition (overall effects of the additives),[3],addition of SB4
C[S+]([O-])c1ccc(-c2nc(-c3ccncc3)c(-c3ccc(F)cc3)[nH]2)cc1 (stereo not drawn) [SB203580],"IL-6, IL-8 and MIP-1b in culture supernatant (BioPlex)","IL-6, IL-8 and MIP-1b",dependent on the p38 MAPK inhibitor
same,PDGF-bb in culture supernatant (for each item),"PDGF-bb; #190318, SB2 not added",high PDGF levels at 3 w
same,PDGF-bb in culture supernatant (weekly),PDGF-bb,little relation to the presence or absence of SB203580
same,IL-8 in culture supernatant (weekly),IL-8; #190318,varies almost depending on the presence or absence of SB2
same,IL-8 in culture supernatant,IL-8; #190802,decreased dependently on a p38 MAPK inhibitor
same,desirable additive condition (overall effects of the additives),[3],no addition of SB2 or the addition thereof only at the final stage of culture
"EGF: epidermal growth factor, a type of cell growth factor",mitochondrial respiratory capacity and oxidative phosphorylation (OXPHOS),[4],reduces mitochondrial respiratory capacity and oxidative phosphorylation (OXPHOS)
same,miR184 expression level,miR184,increases with no EGF addition than with EGF addition
same,miR34a-5p expression level,miR34a-5p,increases with no EGF addition than with EGF addition
same,ratio of corneal endothelial cells of the present disclosure (FACS),"[2]; EGF (−) or 0.5 ng/mL from primary culture, P0 to P2, donor #214",increases when EGF is not added
same,cell shape under microscopy and cell surface CD antigen trait,"[2]; EGF (−), 0.5, 1, 5 ng/mL, passages P2 to P4, donor #202",no addition of EGF was desirable at any passage from P2 to P4
same,standard cell ratio,"[2]; EGF addition, HCEC passages 2-5",lowers the standard cell ratio
same,Lactic Acid and L/P (lactic acid/pyruvic acid) ratio; anaerobic glycolytic activity,[5],non-intended cell profile with high anaerobic glycolytic activity due to the addition of EGF
same,metabolite profile of cultured endothelial cells,[5]; EGF added,showed a non-intended cell profile by adding EGF
same,"amount of branched chain amino acids (Ile, Leu) produced",[5]; amount of EGF added varied,decreased when the amount of EGF added was reduced
same,desirable additive condition (overall effects of the additives),[3],no addition of EGF
